Source: patent publication US6737383B1, “Herbicidal oxadiazolidines” (priority 1999, dated 2004)

Tests used:
bedstraw = test: Test B pre/postemergence bedstraw; type: in vivo, Galium aparine
How it was run: (§1)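 Test chemicals in a non-phytotoxic solvent mixture with surfactant were sprayed preemergence onto planted seeds and postemergence onto plants 2 to 18 cm tall (1- to 4-leaf stage). After twelve to sixteen days in a greenhouse, injury was visually rated against untreated controls from 0 (no effect) to 10 (complete control).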

blackgrass = test: Test B pre/postemergence blackgrass; type: in vivo, Alopecurus myosuroides
How it was run: as §1

surinam grass = test: Test B pre/postemergence surinam grass; type: in vivo, Brachiaria decumbens
How it was run: as §1

cocklebur = test: Test B pre/postemergence cocklebur; type: in vivo, Xanthium strumarium
How it was run: as §1

corn = test: Test B pre/postemergence corn; type: in vivo, Zea mays
How it was run: as §1

crabgrass = test: Test B pre/postemergence crabgrass; type: in vivo, Digitaria sanguinalis
How it was run: as §1

giant foxtail = test: Test B pre/postemergence giant foxtail; type: in vivo, Setaria faberii
How it was run: as §1

morningglory = test: Test B pre/postemergence morningglory; type: in vivo, Ipomoea hederacea
How it was run: as §1

pigweed = test: Test B pre/postemergence pigweed; type: in vivo, Amaranthus retroflexus
How it was run: as §1

rape = test: Test B pre/postemergence rape; type: in vivo, Brassica napus
How it was run: as §1

sugar beet = test: Test B pre/postemergence sugar beet; type: in vivo, Beta vulgaris
How it was run: as §1

velvetleaf = test: Test B pre/postemergence velvetleaf; type: in vivo, Abutilon theophrasti
How it was run: as §1

wild oat = test: Test B pre/postemergence wild oat; type: in vivo, Avena fatua
How it was run: as §1

rice = test: Test B flood test rice; type: in vivo, Oryza sativa
How it was run: (§2)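 Read-out is a visual response score from 0 (no effect) to 10 (complete control), assigned by comparison with untreated controls. Treatment was applied at the 2-leaf stage, and plants stayed in the greenhouse for twelve to sixteen days before scoring.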

smallflower flatsedge = test: Test B flood test smallflower flatsedge; type: in vivo, Cyperus difformis
How it was run: as §2

bamyardgrass = test: Test B flood test barnyardgrass; type: in vivo, Echinochloa crus-galli
How it was run: as §2

[1] = Postemergence, Rate 62 g/ha, scale 0 to 10, 0 is no effect, 10 is complete control
[2] = Postemergence, Rate 125 g/ha, scale of 0 to 10 where 0 is no effect and 10 is complete control
[3] = Postemergence, Rate 250 g/ha, scale of 0 to 10, 0 is no effect, 10 is complete control
[4] = Preemergence, Rate 62 g/ha, scale of 0 to 10 where 0 is no effect and 10 is complete control
[5] = Preemergence, Rate 125 g/ha, scale of 0 to 10 where 0 is no effect and 10 is complete control
[6] = Preemergence, Rate 250 g/ha, scale 0 to 10 (0 no effect, 10 complete control)
[7] = Preemergence, Rate 500 g/ha, scale of 0 to 10 where 0 is no effect and 10 is complete control
[8] = Rate 500 g/ha, Postemergence, scale 0 to 10, 0 is no effect, 10 is complete control
[9] = Rate 62 g/ha, flood test species, Pre-emergence, visual evaluation after twelve to sixteen days
[10] = Rate 125 g/ha, under heading Pre-emergence, flood test species, visual evaluation after twelve to sixteen days
[11] = Rate 250 g/ha, Pre-emergence (flood test species), scale 0 to 10, 0 is no effect, 10 is complete control
[12] = Rate 500 g/ha, Pre-emergence section of Table B, 0 to 10 scale (0 no effect, 10 complete control)

## CC(C)N(C(=O)n1oc(=O)n(CCCC#N)c1=O)c1ccc(F)cc1F [Compound 675]
bedstraw; [1]
  Plant response rating, Bedstraw: 0
bedstraw; [2]
  Bedstraw plant response rating: 1
bedstraw; [3]
  Bedstraw plant response rating: 6
bedstraw; [4]
  Bedstraw plant response rating: 0
bedstraw; [5]
  Plant response rating, Bedstraw: 2
bedstraw; [6]
  Plant response rating, Bedstraw: 10
bedstraw; [7]
  Plant response rating, Bedstraw: 10
blackgrass; [1]
  Plant response rating, Blackgrass: 5
blackgrass; [2]
  Blackgrass plant response rating: 5
blackgrass; [3]
  Blackgrass plant response rating: 7
blackgrass; [4]
  Blackgrass plant response rating: 5
blackgrass; [5]
  Plant response rating, Blackgrass: 9
blackgrass; [6]
  Plant response rating, Blackgrass: 9
blackgrass; [7]
  Plant response rating, Blackgrass: 10
blackgrass; [8]
  Blackgrass plant response rating: 9
Surinam grass; [1]
  Plant response rating, B. signalgrass: 1
Surinam grass; [2]
  B. signalgrass plant response rating: 4
Surinam grass; [3]
  B. signalgrass plant response rating: 8
Surinam grass; [4]
  B. signalgrass plant response rating: 4
Surinam grass; [5]
  Plant response rating, B. signalgrass: 6
Surinam grass; [6]
  Plant response rating, B. signalgrass: 8
Surinam grass; [7]
  Plant response rating, B. signalgrass: 10
Surinam grass; [8]
  B. signalgrass plant response rating: 8
cocklebur; [1]
  Plant response rating, Cocklebur: 0
cocklebur; [2]
  Cocklebur plant response rating: 3
cocklebur; [3]
  Cocklebur plant response rating: 3
cocklebur; [4]
  Cocklebur plant response rating: 0
cocklebur; [5]
  Plant response rating, Cocklebur: 0
cocklebur; [6]
  Plant response rating, Cocklebur: 0
cocklebur; [7]
  Plant response rating, Cocklebur: 0
cocklebur; [8]
  Cocklebur plant response rating: 3
corn; [1]
  Plant response rating, Corn: 0
corn; [2]
  Corn plant response rating: 0
corn; [3]
  Corn plant response rating: 0
corn; [4]
  Corn plant response rating: 0
corn; [5]
  Plant response rating, Corn: 3
corn; [6]
  Plant response rating, Corn: 6
corn; [7]
  Plant response rating, Corn: 9
corn; [8]
  Corn plant response rating: 6
crabgrass; [1]
  Plant response rating, Crabgrass: 6
crabgrass; [2]
  Crabgrass plant response rating: 8
crabgrass; [3]
  Crabgrass plant response rating: 9
crabgrass; [4]
  Crabgrass plant response rating: 6
crabgrass; [5]
  Plant response rating, Crabgrass: 7
crabgrass; [6]
  Plant response rating, Crabgrass: 9
crabgrass; [7]
  Plant response rating, Crabgrass: 10
crabgrass; [8]
  Crabgrass plant response rating: 9
Giant foxtail; [1]
  Plant response rating, Giant foxtail: 8
Giant foxtail; [2]
  Giant foxtail plant response rating: 9
Giant foxtail; [3]
  Giant foxtail plant response rating: 9
Giant foxtail; [4]
  Giant foxtail plant response rating: 9
Giant foxtail; [5]
  Plant response rating, Giant foxtail: 10
Giant foxtail; [7]
  Plant response rating, Giant foxtail: 10
Giant foxtail; [8]
  Giant foxtail plant response rating: 9
morningglory; [1]
  Plant response rating, Morningglory: 1
morningglory; [2]
  Morningglory plant response rating: 2
morningglory; [3]
  Morningglory plant response rating: 2
morningglory; [4]
  Morningglory plant response rating: 0
morningglory; [5]
  Plant response rating, Morningglory: 0
morningglory; [7]
  Plant response rating, Morningglory: 6
morningglory; [8]
  Morningglory plant response rating: 4
pigweed; [1]
  Plant response rating, Redroot pigweed: 2
pigweed; [2]
  Redroot pigweed plant response rating: 2
pigweed; [4]
  Redroot pigweed plant response rating: 5
pigweed; [5]
  Plant response rating, Redroot pigweed: 9
pigweed; [7]
  Plant response rating, Redroot pigweed: 10
pigweed; [8]
  Redroot pigweed plant response rating: 8
rape; [1]
  Plant response rating, Rape: 0
rape; [2]
  Rape plant response rating: 0
rape; [4]
  Rape plant response rating: 2
rape; [5]
  Plant response rating, Rape: 3
rape; [7]
  Plant response rating, Rape: 10
rape; [8]
  Rape plant response rating: 3
Sugar beet; [1]
  Plant response rating, Sugarbeets: 0
Sugar beet; [2]
  Sugarbeets plant response rating: 2
Sugar beet; [4]
  Sugarbeets plant response rating: 5
Sugar beet; [5]
  Plant response rating, Sugarbeets: 7
Sugar beet; [7]
  Plant response rating, Sugarbeets: 10
Sugar beet; [8]
  Sugarbeets plant response rating: 4
velvetleaf; [1]
  Plant response rating, Velvetleaf: 0
velvetleaf; [2]
  Velvetleaf plant response rating: 2
velvetleaf; [4]
  Velvetleaf plant response rating: 6
velvetleaf; [5]
  Plant response rating, Velvetleaf: 7
velvetleaf; [7]
  Plant response rating, Velvetleaf: 10
velvetleaf; [8]
  Velvetleaf plant response rating: 8
Wild oat; [1]
  Plant response rating, Wild oats: 0
Wild oat; [2]
  Wild oats plant response rating: 0
Wild oat; [4]
  Wild oats plant response rating: 4
Wild oat; [5]
  Plant response rating, Wild oats: 5
Wild oat; [7]
  Plant response rating, Wild oats: 10
Wild oat; [8]
  Wild oats plant response rating: 7
rice; [9]
  Plant response rating, Rice (0 to 10 scale, 0 is no effect, 10 is complete control): 0
rice; [10]
  Rice plant response rating (0 to 10 scale, 0 is no effect, 10 is complete control): 0
rice; [11]
  Rice plant response rating: 0
rice; [12]
  Rice plant response rating: 0
Smallflower flatsedge; [9]
  Plant response rating, S. Flatsedge (0 to 10 scale, 0 is no effect, 10 is complete control): 0
Smallflower flatsedge; [10]
  S. Flatsedge plant response rating (0 to 10 scale, 0 is no effect, 10 is complete control): 0
Smallflower flatsedge; [11]
  S. Flatsedge plant response rating: 0
Smallflower flatsedge; [12]
  S. Flatsedge plant response rating: 0
bamyardgrass; [9]
  Plant response rating, Barnyardgrass (0 to 10 scale, 0 is no effect, 10 is complete control): 0
bamyardgrass; [10]
  Barnyardgrass plant response rating (0 to 10 scale, 0 is no effect, 10 is complete control): 0
bamyardgrass; [11]
  Barnyardgrass plant response rating: 0
bamyardgrass; [12]
  Barnyardgrass plant response rating: 0
